From patent US10314812B2, “Suspension compositions of physiologically active phenolic compounds and methods of making and using the same” (Humanetics Corporation, priority 2013, dated 2019)

Legend:
[1] = Particle size analysis by laser diffraction (LA-950, Horiba); type: physicochemical; conditions: for particle size distribution (PSD) after milling: 25% (w/v) genistein in olive oil, nanomilled 60 minutes in YTZ media, initial measurement; for D(0.50) particle size: material as provided by the commercial supplier (DSM), before milling
Excerpt: In the context of the present description, the particle size distribution of a given material is provided in volume diameter as measured in accordance with USP 429 using a laser diffraction particle size analyzer operating in the Mie Scattering Theory diffraction mode and equipped with a suspension dispersion sample chamber (e.g., as available from Horiba Instruments, Irvine, Calif., USA). For purposes of the present description, volume diameter is given as a particle size distribution defined by one or more of D (0.10), D (0.50) and D (0.90). When referred to herein, the term D (0.10) indicates the volume frequency distribution of particles for which 10% of the sample is below the referenced size, the term D (0.50) indicates the volume frequency distribution of particles for which 50% of the sample is below the referenced size, and the term D (0.90) indicates the volume frequency distribution of particles for which 90% of the sample is below the referenced size. In addition to measurement of the particle size distribution via laser diffraction, the results from such particle size analysis and/or the morphology of the particles may be confirmed using known electron microscopy techniques.
Genivida™, a food grade genistein, and Bonistein®, a pharmaceutical grade genistein, were obtained from a commercial supplier (DSM, http://www.dsm.com/corporate/home.html) and subjected to particle size analysis. […] FIG. 1 and FIG. 2 illustrate the PSD of the Genivida™ and Bonistein® materials as supplied from DSM.
The Genivida™ and Bonistein® materials were dispersed within the olive oil to provide a suspension composition that included 25% (w/v) genistein. Several samples ≈200 ml per sample) of the 25% w/v genistein/olive oil suspension were divided and milled using a, MiniCer® nanomill from Netzsch. The samples containing Bonistein® were milled for 60 minutes in a 0.3 mm YTZ media (yttria stabilized zirconium oxide (ZrO2) beads). Samples containing Genivida™ were milled for 60 minutes in a 0.5 mm YTZ media.
A selection of the samples containing Genivida™ were subjected to a pre-milling process (referred to or labeled as “pre-grind” samples). The pre-milling process also utilized a MiniCer® nanomill from Netzsch with YTZ milling media. However, the milling media utilized in the pre-milling step was 1.25 mm YTZ media. Pre-milling was carried out for 20 minutes, with the purpose of reducing the D(0.50) particle size of the Genivida™ to below 10 μm. After pre-milling, those samples subjected to the pre-milling procedure were milled in a MiniCer® nanomill for 60 minutes in a 0.3 mm YTZ media.
After the milling steps, particle size analysis was completed for each sample. […]

[2] = Particle size stability of genistein/olive oil nanosuspensions stored at ambient temperature (laser diffraction and TEM); type: physicochemical; conditions: suspended in olive oil, glass vials
Excerpt: After the milling steps, particle size analysis was completed for each sample. […] An amount of each nanosuspension composition was aliquoted into 3.7 cc glass vials, which were then stored at ambient temperature.
At approximately two months, samples were taken from each vial and subjected to laser diffraction particle size analysis and TEM analysis.
At the 3-month time point, a sample of each nanosuspension was taken from each vial and again subjected to laser diffraction particle size analysis and TEM analysis. Even after three months, the genistein material suspended in the olive oil remained nano-sized, with the D(0.50) at 3 months in all cases being <300 nm (see, FIGS. 3A-3C).
For each of the samples at each time point, particle size analysis conducted by laser diffraction was carried out using a LA-950 particle size analyzer from Horiba Scientific, Edison, N.J.

Row | particle size distribution (PSD) after milling [1] | D(0.50) particle size [1] [μm] | D(0.50) at 3 months ([2]; 3 months, all samples) [nm] | particle size distribution (PSD) after storage ([2]; approximately two months, laser diffraction and TEM) | SMILES
1 | nanoparticulate PSD | 10.7 |  |  | O=c1c(-c2ccc(O)cc2)coc2cc(O)cc(O)c12 [Bonistein®]
2 | nanoparticulate PSD | 29.5 |  |  | O=c1c(-c2ccc(O)cc2)coc2cc(O)cc(O)c12 [Genivida™]
3 |  |  | < 300 | maintained a nanoparticulate PSD | O=c1c(-c2ccc(O)cc2)coc2cc(O)cc(O)c12 [genistein, 5,7-dihydroxy-3-(4-hydroxyphenyl)-chromen-4-one]
